Test results published in publication doi:10.1101/307710v1, “Assignment of the resting state of the secondary active transporter BetP by integrating spectroscopic measurements and molecular simulations” (biorxiv, 2018).

Molecular target: T1, BetP (Corynebacterium glutamicum, UniProt P54582)
T1 construct: plasmid pASK-IBA5betP, Strep-Tactin purified from E. coli DH5alpha-T1, reconstituted in E. coli polar lipid liposomes; homotrimer
T1 sequence (P54582 1-595): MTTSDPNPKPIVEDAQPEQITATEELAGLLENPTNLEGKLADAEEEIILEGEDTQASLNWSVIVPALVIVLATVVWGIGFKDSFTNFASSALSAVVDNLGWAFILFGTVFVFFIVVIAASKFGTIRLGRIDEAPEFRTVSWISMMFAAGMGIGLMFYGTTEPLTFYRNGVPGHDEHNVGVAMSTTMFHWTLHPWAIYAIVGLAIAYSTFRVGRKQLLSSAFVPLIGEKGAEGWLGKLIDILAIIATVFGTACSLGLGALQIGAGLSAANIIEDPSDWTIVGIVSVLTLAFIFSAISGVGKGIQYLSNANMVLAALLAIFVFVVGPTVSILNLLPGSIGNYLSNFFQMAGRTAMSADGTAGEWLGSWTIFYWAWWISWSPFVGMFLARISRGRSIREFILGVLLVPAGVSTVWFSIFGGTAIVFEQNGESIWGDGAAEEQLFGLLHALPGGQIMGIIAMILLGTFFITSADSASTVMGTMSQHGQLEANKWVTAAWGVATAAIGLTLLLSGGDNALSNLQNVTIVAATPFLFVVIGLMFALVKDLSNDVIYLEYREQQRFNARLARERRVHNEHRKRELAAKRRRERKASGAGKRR
Assay: […]-betaine uptake into proteoliposomes
Format: biochemical
Settings: labelled compound; 50 uM betaine, 25 mM NaCl, pH 7.5, 0.6 osmol/kg, valinomycin

C[N+](C)(C)CC(=O)[O-] [betaine]
[14C]-betaine uptake into proteoliposomes: the activity of G450R5/S516R5 is only slightly decreased compared to the wildtype
